Two compounds from article PMC9606955, “In Vitro Activity of Essential Oils Distilled from Colombian Plants against Candida auris and Other Candida Species with Different Antifungal Susceptibility Profiles” (Molecules, 2022) can be followed below.

In the experiment the test system is C. auris. In words: Screening of antifungal activity at 256 µg/mL against C. auris. To be noted: screening at 256 µg/mL, clinical isolates of C. auris. Format: cell-based, Candida auris. The source says:
The fungal strains used in this study were C. albicans ATCC 10231, C. albicans ATCC 64550, C. parapsilosis ATCC 22019, C. tropicalis ATCC 750, C. tropicalis ATCC 200956 (resistant to azoles and AMB), C. glabrata LMDM 34 (resistant to echinocandins), C. metapsilosis MUM 15.12, C. orthopsilosis MUM 17.13, C. lusitaniae MUM 17.08, C. krusei ATCC 6258 (Issatchenkia orientalis ATCC 6258), and C. auris CDC B11903. Additionally, nine clinical isolates were included: C. parapsilosis Synlab 406 (FLC-resistant) and eight C. auris isolates identified by MALDI-TOF MS (Bruker Daltonics, Bremen, Germany) according to Zhao et al.. These yeasts were cultured on Sabouraud Dextrose Agar (SDA; Sigma-Aldrich, St. Louis, MO, USA) for 24 h at 35 °C.
Antifungal susceptibility testing was performed according to Clinical and Laboratory Standards Institute M27, 4th Edition (CLSI standard M27, 4th Edition). Some modifications were applied for evaluation of the antifungal activity of EOs and terpenes. Initially, a screening was carried out to determine the antifungal activity of the EOs and of commercial terpenes. Stock concentrations of EOs and terpenes were prepared at 512 µg/mL and an inoculum of 2.5 × 10^3 CFU/mL of each yeast was prepared in RPMI 1640-MOPS (Sigma- Aldrich St. Louis, MO, USA). Thereafter, 100 µL of each stock solution of EOs or terpenes was dispensed in 96-well microdilution plates (Corning®, Costar®, NY, USA) and 100 µL of each yeast inoculum was added. […] MICs were visually determined at the lowest concentration that produced visual inhibition compared to the growth control. […] The results were expressed as geometric means (GM) and ranges. As an antifungal susceptibility testing control, the activity of ITC and AMB against the reference strains C. krusei ATCC 6258 and C. parapsilosis ATCC 22019 was evaluated in all experiments following the CLSI standard M27, 4th Edition. […]

In the case of `C=C(C)C1CC=C(C)C(O)C1` (mixture of isomers) [carveol], the “antifungal activity in screening against C. auris” value is “active against only some of the clinical isolates of C. auris”.

As to `C=C1CC/C=C(\C)CC[C@@H]2[C@@H]1CC2(C)C` (relative stereo) [trans-β-caryophyllene], the “antifungal activity in screening against C. auris” value was “active against only some of the clinical isolates of C. auris”.
